Measurements reported in patent US8889902B2, “Acetylsalicylic acid salts” (priority 2009, dated 2014).
Marks after values point to notes of the source that are not given here.

Key:
[1] = background statement; cited from earlier work
Wistar rats [2] = details: rats p.o., cited from earlier work
[3] = tested on: response to thermal irritation (hot plate); experiment: Mouse hot plate test; type: in vivo, mice
[4] = tested on: WBC, CRP, CIC in adjuvant arthritis; experiment: Adjuvant arthritis: WBC, CRP and CIC in blood; type: in vivo, Wistar rats
Description: Our experiments were scheduled to test the influence of MASA on the progress of adjuvant arthritis in comparison with MD and ASA. Experiments were conducted on Wistar rats with starting body mass of 153-185 g. Rats were kept in climatized rooms at 22±1° C., relative humidity 60±5% and 12/12-hour light/darkness cycle. Each standard cage housed 7 rats with unlimited access to drinking water and granulated standard feed. All experiments were carried out in accordance with the European Community Council's Directive of 24 Nov. 1986 (86/609/EEC) relative to experimental animal care. All efforts were made to minimize animal suffering and to reduce the number of animals used.
A modified standard procedure for inducting and evaluating the progress of chronic adjuvant arthritis was used (Bellavite P, Ortolani R, Conforti A, Immunology and Homeopathy. 3. Experimental Studies on Animal Models, Advance Access Publication 2.05, 2006, 171-186). Rats were injected into the hind foot pad 0.1 ml and intraperitonealy with 0.05 ml of complete Freund's adjuvant solution.
Hematological indices were determined by standard methods on hematological analyzer ? PENTRA 120 ? , CRP was determined on ? INTEGRA 400+ ? . Levels of CIC in blood serum were determined spectrometrically, using […].

platelet aggregation = experiment: Platelet aggregation ex vivo after 3 days treatment; type: in vivo, rats
Description: Platelet aggregation was studied using whole blood impedance aggregometry on Multiplate (Multiple Platelet Function Analyzer, Dynabyte Medical, Germany) (Toth O et al, Thromb Haemost 2006; 96:781-788. […] Blood samples for in vitro experiment were collected from healthy donor B. […] In the ex vivo experiment blood was collected into plastic tubes covered with hirudin (Dynabyte Medical, Germany) from narcotized rats that were treated for 3 previous days with test substances p.o. The measurements were performed according to modified Dynabyte Medical protocol. […] After 5 min incubation and stirring at 37° C., measurements were initiated by adding of the appropriate agonist solution (sourced from Dynabyte Medical, Germany): After the thrombosis experiment the narcotized animals who received test substances for 3 days were used for platelet aggregation test ex vivo. […] Blood samples were used for measurement between 30 min and 4 h after collection. The measurements were performed according to modified Dynabyte Medical protocol (see above under Platelet aggregation).

[5] = tested on: blood flow in the right ear artery; experiment: Cutaneous vasodilatation caused by nicotinic acid, ear artery blood flow; type: in vivo, Wistar rats; details: 45 mg/kg s.c.; maximal change to baseline
Description: Model. […] Blood pressure was measured in left carotid artery, ECG recorded by standard II lead. […] Blood flow, ECG and arterial pressure were registered by AD Instruments PowerLab systems and stored in computer for further processing. […] The average blood flow data for each animal were calculated taking into account the average blood pressure and compared with initial and control. […] Statistics.

Wistar rats [6] = experiment: Acute toxicity of MASA to rats p.o.; type: in vivo; details: P = 0.05
Description: (§1) The acute toxicity of MASA was determined on Wistar rats and ICR mice by p.o. introduction.
(§2) Male IRC mice with body mass of 20-22 g and Wistar rats with body mass of 200-230 g were used. For determining the acute toxicity each dose was given to 6 animals, each next dose was increased by 500 mg/kg. LD50 was calculated after Karber by the method of Akhila J S et al, Current Sci 2007; 93:917-920 with modification for determining the dose confidence interval (Turner R In Screening Methods in Pharmacology, Acad. Press, New York, 1965, 61-63).
(§3) LD50 was calculated as follows: LD50=Least dose lethal to all in a group−Σ(a×b)/N N—number of animals in each group a—the dose difference b—the mean mortality (lethality in 2 neighbouring groups/2)
(§4) MASA was dissolved ex tempore in 0.2% agar-agar and introduced per os through catheter into stomach. […] Animals were observed till the Day 10 after introduction.

ICR mice = experiment: Acute toxicity of MASA to mice p.o.; type: in vivo; details: P = 0.05
Description: as §1, §2, §3, §4

[7] = tested on: serum lipid levels (C, HDL, LDL, TG); experiment: Chronic hyperlipidemia model (Triton WR1339, 3 weeks); type: in vivo, Wistar rats; details: MASA 150 mg/kg/d p.o.; TR 250 mg/kg 3x/week
Description: Male Wistar rats were used. Animals were held in climatized rooms 22±1° C. with relative humidity 60±5%, and 12/12-hour light/dark cycle with free access to water and feed. Initial weight of animals was 220-240 g. Experimental chronical (subchronical) hyperlipidemia/hypercholesterolemia was induced by TR using the method described by Levine and Saltzman (Levine S, Saltzman A, J Pharmacol Toxicol Meth 2007; 55:224-226). Animals received 250 mg/kg of TR solution via tail vein three times a week for 3 weeks. Solutions of test substances or water for Control and TR group was introduced p.o. once a day one hour before injection of TR solution or taking a blood sample according to the following scheme:
Blood for biochemical analyses was obtained after 1, 2 and 3 weeks (on the next day after the TR injection) by cardiac punction under ether narcosis. Serum was separated by centrifugation and analyzed for total C, HDL, LDL and TG levels by commercial kits. Statistics.

[8] = AA induced, 5 mg/kg/d p.o. 3 days
[9] = ADP induced, 5 mg/kg/d p.o. 3 days
[10] = PGE1 + ADP induced, 5 mg/kg/d p.o. 3 days
[11] = AA induced, 10 mg/kg/d p.o. 3 days
[12] = ADP induced, 10 mg/kg/d p.o. 3 days
[13] = PGE1 + ADP induced, 10 mg/kg/d p.o. 3 days

CC(=O)Oc1ccccc1C(=O)O [ASA, acetylsalicylic acid]
solubility in water [1]: about 0.3%
LD50 (Wistar rats [2]; given by Bayer AG): > 1100 mg/kg
Acute toxicity (LD50) (Wistar rats [2]; given by Boehringer Ingelheim, Acros Chemicals, Sigma-Aldrich): 200 mg/kg
Latent period at 30 min after introduction of test substance ([3]; 50 mg/kg p.o.): 5.4 ± 0.46 s
Latent period at 60 min after introduction of test substance ([3]; 50 mg/kg p.o.): 9.7 ± 1.05 s
CIC units, Day 14 ([4]; 10 mg/kg daily p.o.): 10.8 ± 0.74 units
CIC units, Day 28 ([4]; 10 mg/kg daily p.o.): 8.2 ± 0.53 units
CRP, Day 14 ([4]; 10 mg/kg daily p.o.): 0.26 ± 0.01 mg/L
CRP, Day 28 ([4]; 10 mg/kg daily p.o.): 0.19 ± 0.01 mg/L
CIC units, Day 14 ([4]; 100 mg/kg daily p.o.): 15.0 ± 1.23 units
CIC units, Day 28 ([4]; 100 mg/kg daily p.o.): 14.4 ± 1.66 units
CRP, Day 14 ([4]; 100 mg/kg daily p.o.): 0.29 ± 0.01 mg/L
CRP, Day 28 ([4]; 100 mg/kg daily p.o.): 0.18 ± 0.02 mg/L
AUC (platelet aggregation; [8]): 550 ± 31.3^2 AU*min
Amax (platelet aggregation; [8]): 86.1 ± 6.8^2 AU
AUC (platelet aggregation; [9]): 768 ± 53.2 AU*min
Amax (platelet aggregation; [9]): 150.3 ± 13.5 AU
AUC (platelet aggregation; [10]): 794 ± 48.6 AU*min
Amax (platelet aggregation; [10]): 147.2 ± 11.8 AU

CC(=O)Oc1ccccc1C(=O)[O-].C[N+](C)(C)NCCC(=O)O [MASA, 3-(trimethylammonioamino)propanoate Acetylsalicylic Acid Addition Salt]
Changes in blood flow, % [5]: 8.04 ± 2.02^$ %
confidence interval for LD50 (Wistar rats [6]): Factor f at P = 0.05 for this experiment is 1.308, therefore the confidence interval for LD50 is 1720 ÷ 2944 (mg/kg).
confidence interval for LD50 (ICR mice): Factor f at P = 0.05 for this experiment is 1.32, therefore the confidence interval for LD50 is 1642-2860 (mg/kg).
Latent period at 30 min after introduction of test substance ([3]; 75 mg/kg p.o.): 5.4 ± 0.38 s
Latent period at 60 min after introduction of test substance ([3]; 75 mg/kg p.o.): 4.6 ± 0.26 s
Latent period at 30 min after introduction of test substance ([3]; 150 mg/kg p.o.): 9.5 ± 0.53***^&&& s
Latent period at 60 min after introduction of test substance ([3]; 150 mg/kg p.o.): 7.1 ± 0.55 s
Latent period at 30 min after introduction of test substance ([3]; 300 mg/kg p.o.): 9.6 ± 1.12**^& s
Latent period at 60 min after introduction of test substance ([3]; 300 mg/kg p.o.): 8.6 ± 0.60 s
HDL after 1 week (HDL1) [7]: 100.1 ± 9.4 mg/dL
HDL after 2 weeks (HDL2) [7]: 113.8 ± 13.1 mg/dL
HDL after 3 weeks (HDL3) [7]: 128.3 ± 18.5 mg/dL
LDL after 1 week (LDL1) [7]: 263.3 ± 19.4 mg/dL
LDL after 2 weeks (LDL2) [7]: 287.6 ± 18.5 mg/dL
LDL after 3 weeks (LDL3) [7]: 261.9 ± 12.6 mg/dL
TG after 1 week (TG1) [7]: 964 ± 94.9 mg/dL
TG after 2 weeks (TG2) [7]: 1079 ± 84 mg/dL
TG after 3 weeks (TG3) [7]: 982 ± 72.7 mg/dL
Total C after 1 week (C1) [7]: 375.9 ± 25.8 mg/dL
Total C after 2 weeks (C2) [7]: 406.7 ± 19.8 mg/dL
Total C after 3 weeks (C3) [7]: 409 ± 39.4 mg/dL
CIC units, Day 14 ([4]; 25 mg/kg daily p.o.): 12.6 ± 0.68 units
CIC units, Day 28 ([4]; 25 mg/kg daily p.o.): 11.8 ± 1.53 units
CRP, Day 14 ([4]; 25 mg/kg daily p.o.): 0.29 ± 0.02 mg/L
CRP, Day 28 ([4]; 25 mg/kg daily p.o.): 0.15 ± 0.02^##& mg/l
Leucocytes (WBC), Day 14 ([4]; 25 mg/kg daily p.o.): 14.72 ± 1.63^# 10^3/mm^3
Leucocytes (WBC), Day 28 ([4]; 25 mg/kg daily p.o.): 16.77 ± 1.78 10^3/mm^3
CIC units, Day 14 ([4]; 100 mg/kg daily p.o.): 20.8 ± 2.99 units
CIC units, Day 28 ([4]; 100 mg/kg daily p.o.): 5.8 ± 0.74^##&@@$ units
CRP, Day 14 ([4]; 100 mg/kg daily p.o.): 0.29 ± 0.02 mg/L
CRP, Day 28 ([4]; 100 mg/kg daily p.o.): 0.16 ± 0.01^##& mg/l
Leucocytes (WBC), Day 14 ([4]; 100 mg/kg daily p.o.): 14.13 ± 0.53^## 10^3/mm^3
Leucocytes (WBC), Day 28 ([4]; 100 mg/kg daily p.o.): 15.52 ± 0.57^## 10^3/mm^3
CIC units, Day 14 ([4]; 200 mg/kg daily p.o.): 21.6 ± 3.26 units
CIC units, Day 28 ([4]; 200 mg/kg daily p.o.): 6.2 ± 1.02^##@ units
CRP, Day 14 ([4]; 200 mg/kg daily p.o.): 0.25 ± 0.01*^#@ mg/l
CRP, Day 28 ([4]; 200 mg/kg daily p.o.): 0.19 ± 0.01 mg/L
Leucocytes (WBC), Day 14 ([4]; 200 mg/kg daily p.o.): 15.42 ± 1.40^# 10^3/mm^3
Leucocytes (WBC), Day 28 ([4]; 200 mg/kg daily p.o.): 14.35 ± 0.84^## 10^3/mm^3
AUC (platelet aggregation; [11]): 232 ± 44.1^2&a AU*min
Amax (platelet aggregation; [11]): 48.2 ± 9.7^3&a AU
AUC (platelet aggregation; [12]): 528 ± 46.5^1 AU*min
Amax (platelet aggregation; [12]): 75.5 ± 12.8^2 AU
AUC (platelet aggregation; [13]): 195 ± 35.3^3 AU*min
Amax (platelet aggregation; [13]): 41.4 ± 14.8^2 AU
